Source: PubChem BioAssay AID296 (DTP/NCI, 2004)
Several values for one entry are separate records, joined by “and”; a condition that tells them apart may be missing. Equal values may be shown once. Results filed as inconclusive are left out.

System: MX-1 breast xenograft, nude mice, tumor weight T/C
Test: NCI In Vivo Anticancer Drug Screen. Data for tumor model Human Mammary Carcinoma MX-1 Xenograft (intrarenal inoculation) in NU/NU Swiss (nude) mice
Conditions: endpoint: mean tumor weight change, higher = larger tumour
Method in brief: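 Antitumour effect measured in vivo against vehicle controls, expressed as T/C.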

OC(CCl)CN1CC[N+]2(CC1)CC[N+]1(CCN(CC(O)CCl)CC1)CC2 (centres undefined)
T/C (dose: 8.0 mg/kg/injection, schedule: Q01DX010 (sc), vehicle: water): 117 % of control
T/C (dose: 32.0 mg/kg/injection, schedule: Q01DX010 (ip), vehicle: water): 90 % of control
T/C (dose: 64.0 mg/kg/injection, schedule: Q01DX010 (ip), vehicle: water): 88 % of control
T/C (dose: 64.0 mg/kg/injection, schedule: Q01DX010 (sc), vehicle: water): 92 % of control and 94 % of control
T/C (dose: 106.66 mg/kg/injection, schedule: Q04DX003 (ip), vehicle: water): 30 % of control
T/C (dose: 106.66 mg/kg/injection, schedule: Q04DX003 (sc), vehicle: water): 45 % of control
T/C (dose: 128.0 mg/kg/injection, schedule: Q01DX010 (ip), vehicle: water): 21 % of control
T/C (dose: 213.33 mg/kg/injection, schedule: Q04DX003 (ip), vehicle: water): 52 % of control
T/C (dose: 213.33 mg/kg/injection, schedule: Q04DX003 (sc), vehicle: water): 59 % of control
T/C (dose: 256.0 mg/kg/injection, schedule: Q01DX010 (ip), vehicle: water): 27 % of control
T/C (dose: 426.65 mg/kg/injection, schedule: Q04DX003 (ip), vehicle: water): 26 % of control
T/C (dose: 426.65 mg/kg/injection, schedule: Q04DX003 (sc), vehicle: water): 49 % of control
T/C (dose: 512.0 mg/kg/injection, schedule: Q01DX010 (sc), vehicle: water): 25 % of control

O=c1[nH]c(=O)n(C2CC(O)C(CO)O2)cc1C(F)(F)F (centres undefined)
T/C (dose: 300.0 mg/kg/injection, schedule: Q04DX003 (sc), vehicle: saline): 77 % of control
T/C (dose: 600.0 mg/kg/injection, schedule: Q04DX003 (sc), vehicle: saline): 72 % of control
T/C (dose: 1200.0 mg/kg/injection, schedule: Q04DX003 (sc), vehicle: saline): 43 % of control
T/C (dose: 2400.0 mg/kg/injection, schedule: Q04DX003 (sc), vehicle: saline): 29 % of control

O.O.[NH-]C1CCCCC1[NH-].[Pt+2] (centres undefined)
T/C (dose: 2.5 mg/kg/injection, schedule: Q01DX010 (sc), vehicle: dextrose): 111 % of control
T/C (dose: 5.0 mg/kg/injection, schedule: Q01DX010 (sc), vehicle: dextrose): 76 % of control and 78 % of control
T/C (dose: 10.0 mg/kg/injection, schedule: Q01DX010 (sc), vehicle: dextrose): 55 % of control and 60 % of control
T/C (dose: 20.0 mg/kg/injection, schedule: Q01DX010 (sc), vehicle: dextrose): 26 % of control and 36 % of control

CC1=CC2c3cccc4[nH]cc(c34)CC2N(C)C1 (centres undefined)
T/C (dose: 12.5 mg/kg/injection, schedule: Q04DX003 (sc), vehicle: suspension in saline): 153 % of control

CN(Cc1cnc2nc(N)nc(N)c2n1)c1ccc(C(=O)N[C@@H](CCC(=O)O)C(=O)O)cc1
T/C (dose: 0.5 mg/kg/injection, schedule: Q01DX010 (sc), vehicle: sodium bicarbonate): 86 % of control
T/C (dose: 1.0 mg/kg/injection, schedule: Q01DX010 (sc), vehicle: sodium bicarbonate): 175 % of control

Cc1c2ccc3ccccc3c2c[n+]2ccccc12
T/C (dose: 9.38 mg/kg/injection, schedule: Q04DX003 (sc), vehicle: Klucel (hydroxypropylcellulose) (HPC)): 75 % of control
T/C (dose: 18.75 mg/kg/injection, schedule: Q04DX003 (sc), vehicle: Klucel (hydroxypropylcellulose) (HPC)): 77 % of control

c1ccc([C@H]2CN3CCSC3=N2)cc1
T/C (dose: 15.0 mg/kg/injection, schedule: Q04DX003 (sc), vehicle: saline): 80 % of control
T/C (dose: 30.0 mg/kg/injection, schedule: Q04DX003 (sc), vehicle: saline): 71 % of control
T/C (dose: 60.0 mg/kg/injection, schedule: Q04DX003 (sc), vehicle: saline): 75 % of control

COC1CC(C)C(OC)c2cc(O)cc(c2O)NC(=O)/C(C)=C/C=C\C(C)C(OC(N)=O)/C(C)=C\C(C)C1OC (centres undefined)
T/C (dose: 12.5 mg/kg/injection, schedule: Q04DX003 (sc), vehicle: saline + alcohol): 103 % of control
T/C (dose: 25.0 mg/kg/injection, schedule: Q04DX003 (sc), vehicle: saline + alcohol): 104 % of control
T/C (dose: 50.0 mg/kg/injection, schedule: Q04DX003 (sc), vehicle: saline + alcohol): 90 % of control
T/C (dose: 100.0 mg/kg/injection, schedule: Q04DX003 (sc), vehicle: saline + alcohol): 109 % of control

CCCCCCCCCCCCCCCCCC(=O)OCC(=O)OCC(=O)[C@]1(O)Cc2c(O)c3c(c(O)c2[C@@H](OC2CC(N)C(O)C(C)O2)C1)C(=O)c1c(OC)cccc1C3=O (some centres undefined)
T/C (dose: 6.0 mg/kg/injection, schedule: Q01DX010 (sc), vehicle: water): 48 % of control
T/C (dose: 12.0 mg/kg/injection, schedule: Q01DX010 (sc), vehicle: water): 21 % of control

C[C@@]1(CO)[C@H](O)CC[C@@]2(C)[C@H]1CC[C@H]1C[C@@H]3C[C@@]12CC[C@@]3(O)COC(=O)CN
T/C (dose: 125.0 micrograms/kg/injection, schedule: Q04DX003 (sc), vehicle: saline + alcohol): 102 % of control
T/C (dose: 250.0 micrograms/kg/injection, schedule: Q04DX003 (sc), vehicle: saline + alcohol): 34 % of control
T/C (dose: 500.0 micrograms/kg/injection, schedule: Q04DX003 (sc), vehicle: saline + alcohol): 55 % of control
T/C (dose: 1000.0 micrograms/kg/injection, schedule: Q04DX003 (sc), vehicle: saline + alcohol): 70 % of control
